{"source": "patent US12168003B2", "about": "“Selective inhibition of T follicular helper cells for treatment of autoimmune disorders” (priority 2019, dated 2024)", "key": {"[1]": {"system": "differentiated TH1, TH2 or TH17 cells", "experiment": "In vitro CD4+ T cell differentiation and cytokine production", "format": "cell-based, mouse", "conditions": "20 μM 4EGI-1, 48 hours", "method": "Naïve CD4^+ T cells were isolated (EasySep™ Naïve CD4^+ T cell isolation; StemCell) and incubated in mouse T cell media (described under “Silencing of eIF4E in OT2 T cells by lentivirus transduction section”) containing soluble 1 μg/mL anti-CD28, cytokines, and anti-cytokine antibodies as detailed for polarization to TH1: 10 ng/mL mouse IL-12, 50 U/mL human IL-2, 10 μg/mL anti-mouse IL-4; TH2: 10 ng/mL mouse IL-4, 50 U/mL human IL-2, 10 μg/mL anti-mouse IFN-γ; TH17: 20 ng/mL mouse IL-6, 10 ng/mL mouse IL-23, 10 ng/mL mouse IL-113, 2 ng/mL human TGF-β1, 50 U/mL human IL-2 […], 10 μg/mL anti-mouse IFN-γ; and Treg: 2 ng/mL mouse TGFβ, 300 U/mL human IL-2. TH1, TH2, and TH17 differentiation kits (Cytobox) along with human IL-2 were purchased from Miltenyi Biotec. Mouse TGFβ was purchased from BioLegend®. Naïve CD4^+ T cells in conditions described above were activated on 10 μg/mL anti-CD3 coated plates for 3 days. Following differentiation, 20 μM 4EGI-1 was added to T cell cultures for 48 hours. Supernatant was removed and cytokine levels were determined using LEGENDPlex Mouse Th Cytokine Panel (BioLegend®)."}, "[2]": {"system": "human lymph node CD4+ CD45RO+ T cells", "experiment": "In vitro treatment of human lymph node cells with 4EGI-1", "format": "cell-based", "conditions": "4EGI-1 overnight, three patients", "method": "Discarded, deidentified, reactive, but non-malignant human lymph node single cell suspensions were obtained. Presence of TFH cells was confirmed by identification of CD4^+ CD45RO^+ T cells that are PD1^+ CXCR5^+ BCL6^+ and ICOS^+. Lymph node suspensions were incubated overnight at 37° C. in X-VIVO media (Lonza) containing 5% human AB serum (Sigma) and Glutamax with 0-25 μM 4EGI-1. Cells were then stained with a live/dead viability marker and then for extracellular expression of human CD4, CD45RO, CXCR5, PD-1, or ICOS or intranuclear expression of BCL6. Expression of markers was normalized to % of control (0 μM 4EGI-1) to allow for combined statistical analysis of all 3 patients. Antibody clones and dilutions used to identify these populations are detailed in Table 2."}, "OT2 T cells": {"system": "OT2 T cells", "experiment": "OT2 T cell pre-treatment with 4EGI-1 before adoptive transfer", "format": "in vivo, mouse", "conditions": "20 μM 4EGI-1 1 hour before transfer", "method": "For functional TFH studies: OT2 T cells were isolated and activated, as described, and treated with vehicle or 20 μM 4EGI-1 for 1 hour at 37° C. in vitro prior to transfer of 2×10^6 OT2 T cells i.p. per CD45.1 recipient. Recipient animals were immunized with 100 μg OVA alum 4 days prior. Three days following transfer and 7 days following initial immunization, OT2 T cells that had formed TFH cells were determined.\nFor long-term studies: OT2 T cells were isolated and activated, as described, and treated with vehicle or 20 μM 4EGI-1 for 1 h at 37° C. in vitro prior to transfer of 12×10^6 OT2 T cells i.p. per CD45.1 recipient. OT2 T cells were enumerated 34 days post transfer and intracellular levels of eIF4E were determined."}}}
{"smiles": "O=C(O)C(Cc1ccccc1[N+](=O)[O-])=NNc1nc(-c2ccc(Cl)c(Cl)c2)cs1", "note": "(mixture of isomers) [4EGI-1]", "values": [{"measurement": "secretion of IFN-γ or TNF-α by differentiated TH1 cells", "setting": "[1]", "result": "not altered"}, {"measurement": "secretion of IL-13 by in vitro differentiated TH2 cells", "setting": "[1]", "result": "did not affect"}, {"measurement": "secretion of IL-17A or IL-17F by differentiated TH17 cells", "setting": "[1]", "result": "not altered"}, {"measurement": "levels of BCL6 protein", "setting": "[2]; 0-30 μM / 0-25 μM", "result": "rapidly reduced"}, {"measurement": "cell viability", "setting": "[2]", "result": "no effect"}, {"measurement": "OT2 T cells populating the spleen vs non-treated OT2 T cells", "setting": "OT2 T cells; 34 days post-transfer", "result": "equal"}, {"measurement": "OT2 T cells populating the spleen vs non-treated OT2 T cells", "setting": "OT2 T cells; assayed 7 days", "result": "equal"}, {"measurement": "intracellular levels of eIF4E in recovered OT2 T cells", "setting": "OT2 T cells; day 34 post-transfer", "result": "sustained reduction"}, {"measurement": "reduction in number of OT2 TFH cells in the spleen", "setting": "OT2 T cells; following OVA/Alum immunization", "result": "two-thirds"}]}
